Measurements taken from patent publication US20160235642A1, “Melanin Binding Agents for Targeted Topical Delivery” (AVON PRODUCTS, INC, priority 2013, published 2016).

Experiments:
[1] = Binding of compounds to free synthetic melanin (Example 3); conditions: free synthetic melanin 50 μg/mL, compound 10 μM in PBS, 37° C., 1 hour; relative percentage of compound bound, measured spectrophotometrically from compound left in solution
Description: Free synthetic melanin was incubated with compounds of interest in order to determine relative binding affinity of various compounds of interest to melanin. Free synthetic melanin (50 μg/mL) and compounds of interest at 10 μM concentration in PBS were incubated at 37° C. for 1 hour. After 1 hour, the synthetic melanin was removed from the solution, and the relative concentrations of the compound left in solution (i.e., not bound to the melanin) were measured spectrophometrically.

[2] = tested on: Melanoderm Mel-B (high concentration of melanin) and Melanoderm Mel-C (low concentration of melanin) tissue models; assay: Affinity of pyridinium compounds for melanin in Melanoderm tissue models (Example 2); type: cell-based
Source text: Affinity of pyridinium compounds for melanin in Melanoderm Mel-B (high concentration of melanin) and Melanoderm Mel-C (low concentration of melanin) tissue models.
Melanoderm Mel-B (high concentration of melanin) and Melanoderm Mel-C (low concentration of melanin) tissue models were used to determine the affinity of pyridinium compounds for melanin. Chloroquine served as a positive control and caffeic acid was a negative control for melanin binding. […] Test materials were topically applied at 0, 24 and 48 hours and tested at 1 μM and 10 μM concentration in water. Media samples were collected at 6, 24, 48, and 72 hours and tissue were lysed at 72 hours.

SMILES	% Melanin Bound [1]	further results
OCC[n+]1ccccc1.[Cl-] [1-(2-Hydroxyethyl) pyridinium chloride]	0%	–
c1ccc2[nH]ccc2c1 [Indole]	7.3%	–
O=C(O)c1cc(O)c(O)c(O)c1 [Gallic acid]	0%	–
O=CC[C@@H](O)[C@H](O)[C@H](O)CO [Deoxy-d-glucose]	Not detected	–
O=C(O)CCSCCC(=O)O [Thiodipropanoic Acid]	1.5%	–
Nc1cnc2ccccc2c1 [3-Aminoquinoline]	5.1%	–
Oc1cccc(O)c1O [Pyrogallol]	Not detected	–
OCCc1c[nH]c2ccccc12 [3-(2-Hydroxyethyl)indole]	6.5%	–
Cn1c(=O)c2c(ncn2C)n(C)c1=O [Caffeine]	4.4%	–
O=c1c(O)c(-c2ccc(O)c(O)c2)oc2cc(O)cc(O)c12 [Quercetin]	99.7%	–
CCCC[n+]1ccccc1.[Cl-] [1-Butylpyridinium chloride]	0%	–
Oc1ccccc1O [Pyrocatechol]	21.5%	–
CCN(CC)CCCC(C)Nc1ccnc2cc(Cl)ccc12 (stereo not shown) [Chloroquine]	48.6%	–
CC1COC(=O)O1 (stereo not shown) [Propylene Carbonate]	Not detected	–
CCCCCCCCCCCCOC(=O)CCSCCC(=O)OCCCCCCCCCCCC [Dilauryl Thiodipropionate]	Not detected	–
NC(=O)c1cccnc1 [Niacinamide]	0%	–
Cl.c1ccncc1 [Pyridine hydrochloride]	0%	–
O=C(O)/C=C/c1ccc(O)c(O)c1 [Caffeic acid]	0%	–
CCCCCCCCCCCC[n+]1ccc(N)cc1.[Cl-] [4-Amino-1-dodecyl-pyridinium chloride]	49.5%	melanin binding compared with the positive control (chloroquine) ([2]; Melanoderm tissue models, 1 μM and 10 μM): outperformed the positive control; melanin binding, 10 μM compared to 1 μM concentration ([2]; Melanoderm tissue models, 10 μM versus 1 μM): increased melanin binding; binding affinity for the 3-D tissue samples ([2]; topically applied at 0, 24 and 48 hours, 1 μM and 10 μM in water, media at 6, 24, 48, 72 hours, tissue lysed at 72 hours, FIG. 1): strong binding affinity
